In patent publication JP2005330229A, “4−トリフルオロメトキシフェニル(オキシ)エチルアミン誘導体及び抗菌剤” (Ube Industries Ltd, priority 2004, dated 2005):

Tested on: black mold Aspergillus niger (クロカビ)
Test: Antimicrobial test, black mold (PDA plate, colony diameter)
Type: cell-based
Settings: PDA medium, final concentration 500 mg/L, 25℃, 4 days; for inhibition at 500 µg/mL: 96 h, read-out: inhibition rate

`C[S+]([O-])c1ncccc1C(=O)NCCOc1ccc(OC(F)(F)F)cc1` (centres unmarked) [化合物番号5, 2−メチルスルフィニル−N−(2−(4−トリフルオロメトキシフェノキシ)エチル)ニコチン酸アミド] showed an inhibition at 500 µg/mL of 50 to 69%.
In the case of `O=C(NCCc1ccc(OC(F)(F)F)cc1)c1ccncc1` [化合物番号33, N−(2−(4−トリフルオロメトキシフェニル)エチル)イソニコチン酸アミド], the inhibition at 500 µg/mL is reported as 70 to 89%.
In the case of “2−エトキシ−N−(2−(4−トリフルオロメトキシフェノキシ)エチル)ニコチン酸アミド [化合物番号12]”, the inhibition rate is reported as “B (B:70〜89%阻害)”.
With “N−(2−(4−トリフルオロメトキシフェノキシ)エチル)−9−トリフルオロメチル−ジピリド[2,3−b:3’,2’−f]1,4−チアゼピン−6(5H)−オン [化合物番号41]” the inhibition rate was “C (C:50〜69%阻害)”.
`CS(=O)(=O)c1ncccc1C(=O)NCCOc1ccc(OC(F)(F)F)cc1` [化合物番号4, 2−メチルスルホニル−N−(2−(4−トリフルオロメトキシフェノキシ)エチル)ニコチン酸アミド] showed an inhibition at 500 µg/mL of 70 to 89%.
